Like-named read-outs stand apart in the source and are kept apart here.
What was measured:
[1] = target: human mGlu2 receptor (Homo sapiens, UniProt Q14416); assay: [35S]GTPγS binding assay, mGluR2 negative allosteric modulation (membranes from CHO cells transfected with human mGlu2 receptor, glutamate ~EC80 60 μM); details: for IC50: GTPγS - hmGluR2 anGT pIC50, membranes with human mGlu2 receptor; for IC50 / GTPγS - hmGluR2 anGT pIC50: glutamate ~EC80 (60 μM), pIC50 = -log IC50 (M); for Emax: read-out: GTPγS - hmGluR2 anGT Emax, relative maximal effect: maximal % inhibition relative to the control glutamate response; for GTPγS - hmGluR2 anGT pIC50: membranes with human mGlu2 receptor; for GTPγS - hmGluR2 anGT Emax: relative maximal effect: maximal % inhibition relative to the control glutamate response;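 as to all read-outs here: membranes preincubated 30 min at 30 °C with compound plus glutamate, then [35S]GTPγS (0.1 nM) incorporation measured over another 30 min at 30 °C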
Method: The [^35S]GTPγS binding assay is a functional membrane-based assay used to study G-protein coupled receptor (GPCR) function whereby incorporation of a non-hydrolysable form of GTP, [^35S]GTPγS (guanosine 5′-triphosphate, labelled with gamma-emitting ^35S), is measured. […] Here we describe the use of the [^35S]GTPγS binding assay using membranes from cells transfected with the human mGlu2 receptor and adapted from Schaffhauser et al. (Molecular Pharmacology, 2003, 4:798-810) for the detection of the negative allosteric modulation (NAM) properties of the compounds of this invention.
CHO-cells were cultured to pre-confluence and stimulated with 5 mM butyrate for 24 h. Cells were then collected by scraping in PBS and cell suspension was centrifuged (10 min at 4000 RPM in benchtop centrifuge). Supernatant was discarded and pellet gently resuspended in 50 mM Tris-HCl, pH 7.4 by mixing with an Ultra Turrax homogenizer. The suspension was centrifuged at 12,400 RPM (Sorvall F14S-6x250Y) for 10 minutes and the supernatant discarded. The pellet was homogenized in 5 mM Tris-HCl, pH 7.4 using an Ultra Turrax homogenizer and centrifuged again (13,000 RPM, 20 min, 4° C.). The final pellet was resuspended in 50 mM Tris-HCl, pH 7.4 and stored at −80° C. in appropriate aliquots before use. Protein concentration was determined by the Bradford method (Bio-Rad, USA) with bovine serum albumin as standard.
Measurement of mGluR2 negative allosteric modulatory activity of test compounds was performed as follows. Test compounds and glutamate were diluted in assay buffer containing 10 mM HEPES acid, 10 mM HEPES salt, pH 7.4, 100 mM NaCl, 3 mM MgCl2 and 10 μM GDP. Human mGlu2 receptor-containing membranes were thawed on ice and diluted in assay buffer supplemented with 18 μg/ml saponin. Membranes were pre-incubated with compound together with a predefined (˜EC80) concentration of glutamate (60 μM) for 30 min at 30° C. After addition of [^35S]GTPγS (f.c. 0.1 nM), assay mixtures were shaken briefly and further incubated to allow [^35S]GTPγS incorporation on activation (30 minutes, 30° C.). Final assay mixtures contained 7 μg of membrane protein in 10 mM HEPES acid, 10 mM HEPES salt, pH 7.4, 100 mM NaCl, 3 mM MgCl2, 10 μM GDP and 10 μg/ml saponin. Total reaction volume was 200 μl. Reactions were terminated by rapid filtration through Unifilter-96 GF/B plates (Perkin Elmer, Massachusetts, USA) using a 96-well filtermate universal harvester. Filters were washed 6 times with ice-cold 10 mM NaH2PO4/10 mM Na2HPO4, pH 7.4. Filters were then air-dried, and 30 μl of liquid scintillation cocktail (Microscint-O) was added to each well. Membrane-bound radioactivity was counted in a Topcount.
Data were calculated as % of the control glutamate response, defined as the response that is generated upon addition of an EC80-equivalent concentration of glutamate.

[2] = tested on: Wiga rats; assay: Induction of mydriasis (pupil diameter, test 1 and test 2); format: in vivo, rat; details: route PO; for ED50: Rattus norvegicus
Method: 3) Induction of Mydriasis
The pupil diameter of Wiga rats was measured with a microscopic micrometer (1 unit=1/24 mm). Criteria for drug-induced effects: pupil diameter >25 units for mydriasis (in controls: 1.9%) 1 h post-administration of the test compound (test 1) or 1, 2 or 3 h post-administration of the test compound (test 2, wherein the maximum pupil diameter over the full 3 h period is reported).

[3] = tested on: Male Wiga Wistar rats; assay: Reversal of LY-404039-induced decrease of palpebral opening in apomorphine-challenged rats; format: in vivo, rat; details: rats, route PO (route cell empty for Co. 88 and 84); for ED50: Rattus norvegicus, read-out: ED50 APO LY-404039 (Reversal of LY-404039-induced decrease of palpebral opening in apomorphine challenged rats)
Method: 1) Reversal of LY-404039-Induced Decrease of Palpebral Opening in Apomorphine-Challenged Rats.
Male Wiga Wistar rats (Crl:WI; Charles River Germany; 220±40 g) were housed under standard laboratory conditions (21±2° C.; 50-65% relative humidity; light-dark cycle set at 12 h; lights on at 6.00 h) and fasted overnight prior to the start of the experiments (tap water remained available ad libitum). During the test period, they were housed in individual cages. Palpebral opening was scored every 5 min over the first hour after injection of apomorphine (1.0 mg/kg, i.v.) in animals either pretreated or not pretreated with LY-404039 (2.5 mg/kg, s.c.) at 1 h prior to the apomorphine injection. The animals were also pretreated with test compound or solvent at a predefined interval before apomorphine challenge. The score system was: (5) exophthalmos, (4) wide open, (3) open for three-quarters, (2) half open, (1) open for one-quarter, (0) closed. The scores for palpebral opening were cumulated over the 60-min observation period.

[4] = tested on: rats; assay: Reversal of the effect of the mGluR2 PAM JNJ-42153605-induced inhibition of scopolamine-induced hyperlocomotion; format: in vivo, rat; details: rats, route PO, criterion total distance >1500 cm; for ED50: Rattus norvegicus, read-out: ED50 SCOP JNJ-42153605 (Reversal of the effect of JNJ 42153605 on scopolamine-induced hyperlocomotion)
Method: 2) Reversal of the Effect of the mGluR2 PAM JNJ-42153605-Induced Inhibition of Scopolamine-Induced Hyperlocomotion
Motor activity was measured in microprocessor-based motor activity arenas (closed gray PVC cylinders with a height of 39 cm and a diameter of 31 cm). Each arena was placed on an infrared LED (8×8 LEDs) lit box (white PVC squared box; 40×40 cm^2; height 12.5 cm. An infrared-sensitive tube camera and a white light source were mounted to the ceiling above the observation chamber to track the animal. The total distance traveled (cm) was recorded and analyzed using the Noldus Ethovision XT Video Tracking System (Version 7.0.418; Noldus, Wageningen, The Netherlands). The intensity of the light within the activity cages (measured in the centre at the level of the floor) ranged between 4 and 8 LUX.
The rats were pretreated with test compound or vehicle at 60 min before the start of the activity recordings and placed into individual cages. The rats were challenged with JNJ-42153605 (3-(cyclopropylmethyl)-7-(4-phenylpiperidin-1-yl)-8-(trifluoromethyl)[1,2,4]triazolo[4,3-a]pyridine; WO2010/130424; Cid et al. J. Med. Chem. 2012, 55, 8770-8789) (20 mg/kg, i.v.) 30 min before the start of the activity recording combined with scopolamine (0.16 mg/kg, i.v.) just before the start of the activity measurements. Immediately after the injection of scopolamine, the rats were placed into the activity monitors and total distance traveled over the first 30 min was measured.
For reversal of the inhibitory effect of JNJ-42153605 on the scopolamine-induced hyperlocomotion, the following all-or-none criteria were adopted: (1) reversal: total distance >1500 cm.

[5] = pupil diameter >25 units, maximum over 1, 2 or 3 h post-administration, read-out: ED50 MYD Test 2 (Induction of mydriasis)
[6] = pupil diameter >25 units, maximum over 1, 2 or 3 h post-administration

Sequence of human mGlu2 receptor (Q14416 19-872): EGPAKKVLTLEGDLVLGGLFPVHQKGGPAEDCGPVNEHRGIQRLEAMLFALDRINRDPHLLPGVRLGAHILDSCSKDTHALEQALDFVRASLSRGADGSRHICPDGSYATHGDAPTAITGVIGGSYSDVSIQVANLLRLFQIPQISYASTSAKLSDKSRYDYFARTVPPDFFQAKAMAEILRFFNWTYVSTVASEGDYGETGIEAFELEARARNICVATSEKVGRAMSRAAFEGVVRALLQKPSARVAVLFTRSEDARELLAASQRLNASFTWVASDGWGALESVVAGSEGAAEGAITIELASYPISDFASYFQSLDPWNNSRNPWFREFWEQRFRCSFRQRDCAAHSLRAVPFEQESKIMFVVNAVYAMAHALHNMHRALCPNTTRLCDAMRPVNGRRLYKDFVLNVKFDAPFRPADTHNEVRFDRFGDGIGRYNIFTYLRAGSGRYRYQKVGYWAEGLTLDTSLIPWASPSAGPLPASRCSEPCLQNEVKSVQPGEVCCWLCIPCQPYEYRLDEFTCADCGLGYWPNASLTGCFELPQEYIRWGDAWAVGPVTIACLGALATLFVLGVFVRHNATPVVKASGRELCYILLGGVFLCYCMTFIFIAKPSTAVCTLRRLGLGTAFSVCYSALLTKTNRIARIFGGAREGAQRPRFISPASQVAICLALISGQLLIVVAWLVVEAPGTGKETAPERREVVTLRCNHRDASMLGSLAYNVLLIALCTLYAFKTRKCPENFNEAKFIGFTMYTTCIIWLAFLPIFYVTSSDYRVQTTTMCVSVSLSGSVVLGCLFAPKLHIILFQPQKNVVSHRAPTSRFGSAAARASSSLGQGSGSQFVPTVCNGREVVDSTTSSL

Structure (SMILES) | IC50 [1] | Emax [1] | melting point | GTPγS - hmGluR2 anGT pIC50 [1] | GTPγS - hmGluR2 anGT Emax [1] | ED50 [2, 5] | ED50 [3] | ED50 [4] | ED50 MYD Test 2 (Induction of mydriasis) [2, 6] | ED50 APO LY-404039 (Reversal of LY-404039-induced decrease of palpebral opening in apomorphine challenged rats) [3] | ED50 SCOP JNJ-42153605 (Reversal of the effect of JNJ 42153605 on scopolamine-induced hyperlocomotion) [4] | ED50 ([2]; pupil diameter >25 units 1 h post-administration, read-out: ED50 MYD Test 1 (Induction of mydriasis))
C[C@H]1CN(c2ccc(C(F)(F)F)cc2)C(=O)c2c(C(=O)Nc3ccccn3)cnn21 [compound 9] | 1.12e-08 M | 103% | 246.7 °C |  |  | > 10 mg/kg | > 2.5 mg/kg | 0.32 mg/kg |  |  |  | 
Cc1cc(N2C[C@H](C)n3ncc(C(=O)Nc4cccnc4)c3C2=O)ccc1C(F)(F)F [compound 36, (7S)-7-Methyl-5-[3-methyl-4-(trifluoromethyl)phenyl]-4-oxo-N-(3-pyridyl)-6,7-dihydropyrazolo[1,5-a]pyrazine-3-carboxamide] | 8.51e-10 M | 111% | 156.85 °C |  |  | 20 mg/kg |  | 0.2 mg/kg |  |  |  | 
COc1cc(N2C[C@H](C)n3ncc(C(=O)Nc4cncc(F)c4)c3C2=O)ccc1C(F)(F)F [compound 117] | 3.72e-09 M | 105% | 259 °C |  |  | > 10 mg/kg |  | 0.51 mg/kg |  |  |  | 
Cc1ccncc1NC(=O)c1cnn2c1C(=O)N(c1ccc(Cl)c(Cl)c1)C[C@@H]2C [compound 30] | 1.1e-09 M | 111% | 225 °C |  |  | 3.1 mg/kg |  | 0.51 mg/kg |  |  |  | 
C[C@H]1CN(c2ccc(C(F)(F)F)c(Cl)c2)C(=O)c2c(C(=O)Nc3cccnc3)cnn21 [compound 47] | 1.07e-09 M | 109% | 140.43 °C |  |  | 32 mg/kg |  | 0.5 mg/kg |  |  |  | 
Cc1cc(N2C[C@H](C)n3ncc(C(=O)Nc4cncc(F)c4)c3C2=O)ccc1C(F)(F)F [compound 39] | 9.33e-10 M | 112% | 144.6 °C |  |  | 5 mg/kg |  | 0.32 mg/kg |  |  |  | 
C[C@H]1CN(c2ccc(Cl)c(Cl)c2)C(=O)c2c(C(=O)Nc3cnccn3)cnn21 [compound 116] | 1.35e-09 M | 109% | 213.63 °C |  |  | 5 mg/kg |  | 0.05 mg/kg |  |  |  | 
Cc1ccncc1NC(=O)c1cnn2c1C(=O)N(c1ccc(C(F)(F)F)c(C)c1)C[C@@H]2C [compound 38] | 1.15e-09 M | 108% | 186.5 °C |  |  | 2 mg/kg |  | 0.2 mg/kg |  |  |  | 
C[C@H]1CN(c2ccc(Cl)cc2)C(=O)c2c(C(=O)Nc3cnccn3)cnn21 [compound 162] | 6.76e-09 M | 109% | 250.1 °C |  |  | > 10 mg/kg |  | 0.13 mg/kg |  |  |  | 

More lines, main results first:

IC50 [1] | Emax [1] | melting point | GTPγS - hmGluR2 anGT pIC50 [1] | GTPγS - hmGluR2 anGT Emax [1] | Structure (SMILES) | ED50 [2, 5] | ED50 [3] | ED50 [4] | ED50 MYD Test 2 (Induction of mydriasis) [2, 6] | ED50 APO LY-404039 (Reversal of LY-404039-induced decrease of palpebral opening in apomorphine challenged rats) [3] | ED50 SCOP JNJ-42153605 (Reversal of the effect of JNJ 42153605 on scopolamine-induced hyperlocomotion) [4] | ED50 ([2]; pupil diameter >25 units 1 h post-administration, read-out: ED50 MYD Test 1 (Induction of mydriasis))
 |  |  | 8.8 | 105% | Cc1cc(NC(=O)c2cnn3c2C(=O)N(c2ccc(Cl)c(Cl)c2)C[C@@H]3C)cc(C)n1 [compound 118] |  |  |  | 1.3 mg/kg | >0.63 mg/kg | >0.63 mg/kg | 
 |  |  | 8.57 | 118% | Cc1cc(NC(=O)c2cnn3c2C(=O)N(c2ccc(C(F)(F)F)cc2)C[C@@H]3C)cc(C)n1 [compound 101] |  |  |  | >10 mg/kg | 0.79 mg/kg | 0.5 mg/kg | 
1.91e-09 M | 111% | 167.35 °C |  |  | C[C@H]1CN(c2ccc(C(F)(F)F)cc2)C(=O)c2c(C(=O)Nc3cccnc3)cnn21 [compound 1, (7S)-7-methyl-4-oxo-N-(3-pyridyl)-5-[4-(trifluoromethyl)phenyl]-6,7-dihydropyrazolo[1,5-a]pyrazine-3-carboxamide] | > 40 mg/kg | 0.39 mg/kg | 0.2 mg/kg |  |  |  | 
2.24e-09 M | 107% | 194.5 °C |  |  | Cc1c(F)cncc1NC(=O)c1cnn2c1C(=O)N(c1ccc(C(F)(F)F)cc1)C[C@@H]2C [compound 124, (7S)—N-(5-Fluoro-4-methyl-3-pyridyl)-7-methyl-4-oxo-5-[4-(trifluoromethyl)phenyl]-6,7-dihydropyrazolo[1,5-a]pyrazine-3-carboxamide] | > 40 mg/kg |  | 0.2 mg/kg |  |  |  | 
3.02e-09 M | 105% | 215 °C |  |  | Cc1cc(NC(=O)c2cnn3c2C(=O)N(c2ccc(C(F)(F)F)cc2)C[C@@H]3C)ccn1 [compound 5] |  | 0.32 mg/kg | 1.27 mg/kg |  |  |  | > 10 mg/kg
 |  |  | 8.91 | 109% | Cc1cc(NC(=O)c2cnn3c2C(=O)N(c2ccc(C(F)(F)F)c(Cl)c2)C[C@@H]3C)ccn1 [compound 109] |  |  |  | 32 mg/kg |  | 0.32 mg/kg | 
